Reference: patent publication US20230407296A1, “Method to Regulate ALOX12-AS1 IncRNA-Mediated Alteration of ALOX12 Protein and to Screen for Novel Drugs to Alter ALOX12 Protein Level” (priority 2021, published 2023)

Key:
Type in all cases: cell-based, human
ALOX12-AS1-201 lncRNA = assay: Nucleo-cytoplasmic translocation of ALOX12-AS1-201 in HEK293 cells (FISH, fractionation, quantitative RT-PCR); settings: 10 μM TPA, 1 hour
Description: Phorbol ester (12-O-Tetradecanoylphorbol 13-acetate: TPA) is an activator of protein kinase C (PKC) that has been frequently used for inducing differentiation in different cell types including myeloid cells. […] Therefore, we treated HEK293 cells with 10 μM TPA for 1 hour and observed ALOX12-AS1-201 nucleo-cytoplasmic translocation as well as measured ALOX12 protein level.
Total RNA from different cell lines was extracted with Trizol reagent (Catalog number: 15596026; ThermoFisher Scientific, Canada) as per the manufacturer's recommended protocol. […] Absolute quantification of ALOX12-AS1 lncRNA isoforms was performed in a Mastercycler®ep realplex real-time PCR system (Eppendorf, Hamburg, Germany) using SYBR green dye (Catalog number: S7563; ThermoFisher Scientific). […] Real-time PCR data quality control calculations were determined by the SAS program as described previously and the calculated PCR efficiency was between 95%-99%. Quantitative RT-PCR was conducted for different cell-line derived RNAs, and the specificity of each amplified product was confirmed by melting curve analysis. Results were expressed as copy number of specific isoforms per 100 ng of total RNA.
For RNA-FISH, cells were grown on coverslips and human tissue cryosections were adhered to glass slides. […] The cells were then fixed and analyzed by RNA-FISH. […]

[1] = system: ALOX12 protein level in HEK293 cells; assay: ALOX12 protein level in HEK293 cells (immunoblot); settings: HEK293 cells, 10 μM TPA, 1 hour, vs vehicle
Description: As an alternative approach, multiple isoform-specific oligonucleotides (ASOs) complementary to different regions of ALOX12-AS1-201/202 were designed (FIG. 7A-C).
Relative quantification of proteins was performed as described previously [35, 106]. The cell lysates were prepared in 1×RIPA lysis and extraction buffer (catalogue number: 89900, ThermoFisher Scientific) supplemented with 1× Halt protease and phosphatase inhibitor cocktail (catalogue number: 78441, ThermoFisher Scientific). The protein lysates were denatured in Laemmli buffer containing 2% SDS, 10% glycerol, 0.002% bromophenol blue, 0.75 M Tris-HCl pH 6.8, and 100 mM DTT. The immunoblots were imaged using a ChemiDoc XRS+ system (Bio-Rad) and band intensities were quantified using ImageJ (version 1.48) Software [107]. Due to the possibility of inconsistency in the relative expression of housekeeping genes, we normalized all proteins of interest based on the intensity of the Oriole-stained protein profile [92].

[2] = system: ALOX12 protein level in THP-1 cells; assay: ALOX12 protein level in TPA-treated THP-1 cells (immunoblot)
Description: Phorbol ester (12-O-Tetradecanoylphorbol 13-acetate: TPA) is an activator of protein kinase C (PKC) that has been frequently used for inducing the differentiation of different cell types, including myeloid cells. Activation of human monocytic cells affects ALOX expression. Therefore, we induced differentiation of monocytic THP-1 cells to macrophage-like cells (MLCs) with 100 nM TPA [91, 92] and monitored the ALOX12 protein level as well as nucleo-cytoplasmic translocation of ALOX12-AS1-201. […] We concurrently monitored expression of the integrin subunit a M (ITGAM), also known as CD11b, which regulates myeloid cell polarization and is expressed in macrophages to facilitate adhesion, migration, chemotaxis, and accumulation during inflammation. […] CD68 is a transmembrane glycoprotein that is mainly located in the endosomal/lysosomal compartment but can rapidly shuttle to the cell surface in myeloid cells. […] Based on these observations, we performed nuclear and cytoplasmic fractionation at 72 hours of TPA treatment.
Relative quantification of proteins was performed as described previously. […] The immunoblots were imaged using a ChemiDoc XRS+ system (Bio-Rad) and band intensities were quantified using ImageJ (version 1.48) Software. […]

## CCCCCCCCCCCCCC(=O)O[C@@H]1[C@@H](C)[C@@]2(O)[C@@H](C=C(CO)C[C@]3(O)C(=O)C(C)=C[C@@H]23)[C@@H]2C(C)(C)[C@]12OC(C)=O [TPA, 12-O-Tetradecanoylphorbol 13-acetate]
ALOX12-AS1-201 lncRNA; FISH, vs vehicle (DMSO)
  ALOX12-AS1-201 nucleo-cytoplasmic translocation: dramatic nucleo-cytoplasmic translocation
ALOX12-AS1-201 lncRNA; subcellular fractionation and quantitative RT-PCR
  cytosolic ALOX12-AS1-201 lncRNA abundance: significant increase
[1]
  ALOX12 protein level: significant reduction
[2]; THP-1 cells, 100 nM TPA, treatment period 1-72 h, immunoblot
  ALOX12 protein levels: dramatically reduced
[2]; TPA-differentiated MLCs, 100 nM, 72 hours, vs vehicle (DMSO) treated THP-1 cells
  ALOX12 protein levels: concomitant decrease
